Activity calls are given as the source filed them. No cut-off for these calls is given here.
Tests used:
Assay type in all cases: cell-based
[1] = test system: Oocyte; test: Modulatory activity at GABAA alpha1/beta2/gamma2L (unknown origin) expressed in Xenopus laevis oocyte assessed as chloride current at 1 to 100 uM; conditions: Homo sapiens, dose 1-100 µM
[2] = test system: Oocyte; test: Antagonist activity at GABAA alpha1/beta2/gamma2L (unknown origin) expressed in Xenopus laevis oocyte assessed as reduction in lorazepam-induced chloride current at 100 uM relative to control; parameters: scale not given: the % may be the effect or the level left; conditions: Homo sapiens, filed as antagonist
[3] = test system: Oocyte; test: Inverse agonist activity at GABAA alpha1/beta2/gamma2L (unknown origin) expressed in Xenopus laevis oocyte assessed as reduction in chloride current at 30 uM relative to control; parameters: scale not given: the % may be the effect or the level left; conditions: Homo sapiens
[4] = test system: Oocyte; test: Inverse agonist activity at GABAA alpha1/beta2/gamma2L (unknown origin) expressed in Xenopus laevis oocyte assessed as reduction in chloride current at 100 uM relative to control; parameters: scale not given: the % may be the effect or the level left; conditions: Homo sapiens, filed as inverse agonist
[5] = test system: Oocyte; test: Agonist activity at GABAA alpha1/beta2/gamma2L (unknown origin) expressed in Xenopus laevis oocyte assessed as increase in chloride current at 30 uM relative to control; conditions: Homo sapiens, filed as agonist

SMILES | Activity [1] | Activity [2] | other results
COc1ccc2c(c1)-n1ncc(C(=O)NCc3ccccc3OC)c1NC2 | inactive | Active | –
COc1ccc2cnc3c(C(=O)NC4CCCCC4)cnn3c2c1 | – | – | Activity [3]: 19%; Activity [4]: 49%
COc1ccc2c(c1)-n1ncc(C(=O)NCC3CCCCC3)c1NC2 | inactive | Active | –
COc1ccc2cnc3c(C(=O)Nc4ccccc4)cnn3c2c1 | – | – | Activity [5]: 34%
COc1ccc2cnc3c(C(=O)NCc4ccccc4)cnn3c2c1 | inactive | Active | –
COc1ccc2cnc3c(C(=O)NC(C)C)cnn3c2c1 | inactive | Active | –
COc1ccc2cnc3c(C(=O)NCc4ccccc4OC)cnn3c2c1 | inactive | Active | –
COc1ccc2cnc3c(C(=O)NCC4CCCCC4)cnn3c2c1 | inactive | Active | –
COc1ccc2c(c1)-n1ncc(C(=O)NCc3ccco3)c1NC2 | – | – | Activity [5]: Active
COc1ccc2cnc3c(C(=O)NCc4cccs4)cnn3c2c1 | – | – | Activity [5]: 34%
COc1ccc2cnc3c(C(N)=O)cnn3c2c1 | inactive | Active | –
COc1ccc2c(c1)-n1ncc(C(=O)NCc3ccccc3)c1NC2 | inactive | Active | –
COc1ccc2c(c1)-n1ncc(C(N)=O)c1NC2 | inactive | Active | –
COc1ccc2c(c1)-n1ncc(C(=O)NC(C)C)c1NC2 | inactive | 90% | –
COc1ccc2cnc3c(C(=O)NCc4ccco4)cnn3c2c1 | – | – | Activity [5]: Active
COc1ccc2c(c1)-n1ncc(C(=O)Nc3ccccc3)c1NC2 | – | – | Activity [5]: 34%
COc1ccc2c(c1)-n1ncc(C(=O)NC3CCCCC3)c1NC2 | inactive | Active | –

Reference: ChEMBL document CHEMBL4680323, “'Proximity frequencies' a new parameter to evaluate the profile of GABAR modulators” (Bioorg Med Chem Lett, 2021)
